This note sets out measurements from patent US20060105969A1, “Anthelmintic compositions” (priority 1999, published 2006).

In this assay the test system is L4 Heartworm (D. immitis). Nature of the assay: In vitro L4 heartworm (D. immitis) larval motility assay. Type of assay: cell-based, Dirofilaria immitis.

Structures are written as SMILES. Like-named read-outs stand apart in the source and are kept apart here.

`CO[C@H]1C[C@H](O[C@@H]2/C(C)=C/C[C@@H]3C[C@@H](C[C@]4(CC[C@H](C)[C@@H](C5CCCCC5)O4)O3)OC(=O)[C@@H]3C=C(C)/C(=N/O)[C@H]4OC/C(=C\C=C\[C@@H]2C)[C@]43O)O[C@@H](C)[C@@H]1O` [(1), 5-oximino 22,23-dihydro-25-cyclohexylayermectin B1 monosaccharide]: the “effect in causing mortality or paralysis” value is “only a modest effect”. For the same molecule, the “Observation score (larval motility), duplicate observations” value (“Observation score (larval motility)” for short) (1 mcg/ml, 2 h post treatment) is 5/5. In addition, the “Observation score (larval motility)” value (1 mcg/ml, 4 h post treatment) is reported as 5/5. The “Observation score (larval motility)” value (1 mcg/ml, 24 h post treatment) is on record as 5/5. Besides, the “Observation score (larval motility)” value (1 mcg/ml, 48 h post treatment) is recorded as 5/5. The “Observation score (larval motility)” value (1 mcg/ml, 72 h post treatment) is given as 5/5. The “Observation score (larval motility)” value (10 mcg/ml, 2 h post treatment) was 2/2. Also, the “Observation score (larval motility)” value (10 mcg/ml, 4 h post treatment) is given as 2/0. Further, the “Observation score (larval motility)” value (10 mcg/ml, 24 h post treatment) is 3/3. For the same molecule, under “10 mcg/ml, 48 h post treatment”, the “Observation score (larval motility)” value is recorded as 4/4. Moreover, the “Observation score (larval motility)” value (10 mcg/ml, 72 h post treatment) is 3/4.
Regarding `N#Cc1nn(-c2c(Cl)cc(C(F)(F)F)cc2Cl)c(N)c1[S+]([O-])C(F)(F)F` (stereo not shown) [Fipronil, 5-amino-3-cyano-1-(2,6-dichloro-4-trifluorome-thylphenyl)-4-trifluoromethylsulphinylpyrazole], the “Observation score (larval motility)” value is reported as 5/5 and the “effect in causing mortality or paralysis” value is reported as “no observable effect at all”.
